Source: patent US20260015325A1, “ALKOXY HETEROARYL- CARBOXAMIDE OR THIOAMIDE COMPOUNDS” (SYNGENTA CROP PROTECTION AG, priority 2022, published 2026)
Read-outs that look alike come from different tables or passages of the source.

What was measured:
Type in all cases: in vivo
[1] = system: Myzus persicae (Green Peach Aphid); test: Myzus persicae (Green Peach Aphid): feeding/contact activity, sunflower leaf discs; settings: foliar, 144 h
Procedure: Example B6: Myzus persicae (Green Peach Aphid): Feeding/Contact Activity
Sunflower leaf discs were placed onto agar in a 24-well microtiter plate and sprayed with aqueous test solutions prepared from 10′000 ppm DMSO stock solutions. After drying, the leaf discs were infested with an aphid population of mixed ages. The samples were assessed for mortality 6 days after infestation.

[2] = system: Bemisia tabaci (Cotton White Fly); test: Bemisia tabaci (Cotton White Fly): feeding/contact activity, cotton leaf discs; settings: foliar, 144 h
Procedure: Example B1: Bemisia tabaci (Cotton White Fly): Feeding/Contact Activity
Cotton leaf discs were placed on agar in 24-well microtiter plates and sprayed with aqueous test solutions prepared from 10′000 ppm DMSO stock solutions. After drying the leaf discs were infested with adult white flies. The samples were checked for mortality 6 days after incubation.

[3] = system: Euschistus heros (Neotropical Brown Stink Bug); test: Euschistus heros (Neotropical Brown Stink Bug), soybean leaves; settings: 120 h, read-out: effect in at least one of the two categories (mortality or growth inhibition); for percent effect (mortality or growth inhibition) at 200 ppm: application rate of 200 ppm, N2 nymphs on sprayed soybean leaves, 5 days after infestation
Procedure: Example B4: Euschistus heros (Neotropical Brown Stink Bug)
Soybean leaves on agar in 24-well microtiter plates were sprayed with aqueous test solutions prepared from 10′000 ppm DMSO stock solutions. After drying the leaves were infested with N2 nymphs. The samples were assessed for mortality and growth inhibition in comparison to untreated samples 5 days after infestation.

[4] = system: Myzus persicae (Green Peach Aphid); test: Myzus persicae (Green Peach Aphid): intrinsic activity, sucrose solution; settings: 120 h
Source text: Example B8: Myzus persicae (Green Peach Aphid). Intrinsic Activity
Test compounds prepared from 10′000 ppm DMSO stock solutions were applied by pipette into 24-well microtiter plates and mixed with sucrose solution. The plates were closed with a stretched Parafilm. A plastic stencil with 24 holes was placed onto the plate and infested pea seedlings were placed directly on the Parafilm. The infested plate was closed with a gel blotting paper and another plastic stencil and then turned upside down. The samples were assessed for mortality 5 days after infestation.

[5] = system: Frankliniella occidentalis (Western Flower Thrips); test: Frankliniella occidentalis (Western Flower Thrips): feeding/contact activity, sunflower leaf discs; settings: foliar, 168 h, application rate of 200 ppm, mixed ages on sprayed sunflower leaf discs, 7 days after infestation
Procedure: Example B5: Frankliniella occidentalis (Western Flower Thrips): Feeding/Contact Activity
Sunflower leaf discs were placed on agar in 24-well microtiter plates and sprayed with aqueous test solutions prepared from […] stock solutions. After drying the leaf discs were infested with a Frankliniella population of mixed ages. The samples were assessed for mortality 7 days after infestation.

[6] = system: Tetranychus urticae (Two-Spotted Spider Mite); test: whole plant or invertebrate; settings: foliar, 192 h
Procedure: Example B11: Tetranychus urticae (Two-Spotted Spider Mite): Feeding/Contact Activity
Bean leaf discs on agar in 24-well microtiter plates were sprayed with aqueous test solutions prepared from 10′000 ppm DMSO stock solutions. After drying the leaf discs were infested with a mite population of mixed ages. The samples were assessed for mortality on mixed population (mobile stages) 8 days after infestation.

[7] = system: Myzus persicae (Green Peach Aphid); test: Myzus persicae (Green Peach Aphid): systemic activity, pea seedlings; settings: 144 h
Procedure: Example B7: Myzus persicae (Green Peach Aphid). Systemic Activity
Roots of pea seedlings infested with an aphid population of mixed ages were placed directly into aqueous test solutions prepared from 10′000 DMSO stock solutions. The samples were assessed for mortality 6 days after placing seedlings into test solutions.

[8] = system: Plutella xylostella (Diamond Back Moth); test: Plutella xylostella (Diamond Back Moth), artificial diet; settings: 192 h, application rate of 200 ppm, eggs on treated artificial diet, 8 days after infestation, read-out: effect in at least one of the two categories (mortality or growth inhibition)
Procedure: Example B9: Plutella xylostella (Diamond Back Moth)
24-well microtiter plates with artificial diet were treated with aqueous test solutions prepared from 10′000 ppm DMSO stock solutions by pipetting. After drying, Plutella eggs were pipetted through a plastic stencil onto a gel blotting paper and the plate was closed with it. The samples were assessed for mortality and growth inhibition in comparison to untreated samples 8 days after infestation.

[9] = application rate of 200 ppm, mixed ages on sprayed sunflower leaf discs, 6 days after infestation, read-out: mortality
[10] = application rate of 200 ppm, adult white flies on sprayed cotton leaf discs, 6 days after incubation, read-out: mortality
[11] = test rate of 12 ppm, intrinsic, mixed with sucrose solution under Parafilm, 5 days after infestation, read-out: mortality
[12] = application rate of 200 ppm, mixed population (mobile stages) on sprayed bean leaf discs, 8 days after infestation, read-out: mortality
[13] = test rate of 24 ppm, systemic, roots of infested pea seedlings in test solution, 6 days, read-out: mortality

C[C@@H](COc1cnc(Cl)c(C(=O)NCC(F)(F)F)c1)NS(=O)(=O)C(F)(F)F [Compound P-3, 2-chloro-N-(2,2,2-trifluoroethyl)-5-[(2S)-2-(trifluoromethylsulfonylamino)propoxy]pyridine-3-carboxamide]
≥ 80%: mortality at 200 ppm [1, 9] | mortality at 200 ppm [2, 10] | percent effect (mortality or growth inhibition) at 200 ppm [3] | mortality at 12 ppm [4, 11] | mortality at 200 ppm [5] | mortality at 200 ppm [6, 12]

C[C@@H](COc1cnc(Cl)c(C(=O)NC2(C#N)CC2)c1)N(C(=O)OC(C)(C)C)S(=O)(=O)C(F)(F)F [Compound P-6, tert-butyl N-[(1S)-2-[[6-chloro-5-[(1-cyanocyclopropyl)carbamoyl]-3-pyridyl]oxy]-1-methyl-ethyl]-N-(trifluoromethylsulfonyl)carbamate]
≥ 80%: mortality at 200 ppm [1, 9] | mortality at 200 ppm [2, 10] | percent effect (mortality or growth inhibition) at 200 ppm [3] | mortality at 12 ppm [4, 11] | mortality at 200 ppm [5] | mortality at 24 ppm [7, 13] | mortality at 200 ppm [6, 12]

C[C@@H](COc1cnc(Cl)c(C(=O)NC2(C#N)CC2)c1)N(CC#N)S(=O)(=O)C(F)(F)F [Compound P-8, 2-chloro-N-(1-cyanocyclopropyl)-5-[(2S)-2-[cyanomethyl(trifluoromethylsulfonyl)amino]propoxy]pyridine-3-carboxamide]
≥ 80%: mortality at 200 ppm [1, 9] | mortality at 200 ppm [2, 10] | percent effect (mortality or growth inhibition) at 200 ppm [3] | mortality at 12 ppm [4, 11] | mortality at 24 ppm [7, 13] | mortality at 200 ppm [6, 12]

CC(C)C(=O)OCN([C@@H](C)COc1cnc(Cl)c(C(=O)NC2(C#N)CC2)c1)S(=O)(=O)C(F)(F)F [Compound P-9, [[(1S)-2-[[6-chloro-5-[(1-cyanocyclopropyl)carbamoyl]-3-pyridyl]oxy]-1-methyl-ethyl]-(trifluoromethylsulfonyl)amino]methyl 2-methylpropanoate]
≥ 80%: mortality at 200 ppm [1, 9] | mortality at 200 ppm [2, 10] | mortality at 12 ppm [4, 11] | mortality at 200 ppm [5]

COC(=O)N([C@@H](C)COc1cnc(Cl)c(C(=O)NC2CC2)c1)S(=O)(=O)C(F)(F)F [Compound P-14, methyl N-[(1S)-2-[[6-chloro-5-(cyclopropylcarbamoyl)-3-pyridyl]oxy]-1-methyl-ethyl]-N-(trifluoromethylsulfonyl)carbamate]
≥ 80%: mortality at 200 ppm [1] | mortality at 200 ppm [2] | percent control (mortality or growth inhibition) at 200 ppm [3] | mortality at 12 ppm [4] | mortality at 24 ppm [7] | mortality at 200 ppm [6]

C[C@@H](COc1cnc(Cl)c(C(=O)NC2CC2)c1)N(CC#N)S(=O)(=O)C(F)(F)F [Compound P-15, 2-chloro-5-[(2S)-2-[cyanomethyl (trifluoromethylsulfonyl)amino]propoxy]-N-cyclopropyl-pyridine-3-carboxamide]
≥ 80%: mortality at 200 ppm [1, 9] | mortality at 200 ppm [2, 10] | percent effect (mortality or growth inhibition) at 200 ppm [3] | mortality at 12 ppm [4, 11] | mortality at 24 ppm [7, 13] | mortality at 200 ppm [6, 12]

Cc1ncc(OC[C@H](C)NS(=O)(=O)C(F)(F)F)cc1C(=O)NC(C)c1ncnn1-c1ccc(C#N)cn1 (stereo partly drawn) [Compound P-27, N-[1-[2-(5-cyano-2-pyridyl)-1,2,4-triazol-3-yl]ethyl]-2-methyl-5-[(2S)-2-(trifluoromethylsulfonylamino)propoxy]pyridine-3-carboxamide]
≥ 80%: percent effect (mortality or growth inhibition) at 200 ppm [8]

Cc1ncc(OC[C@H](C)NS(=O)(=O)C(F)(F)F)cc1C(=O)NC1CON(CC(F)(F)F)C1=O (stereo partly drawn) [Compound P-30, 2-methyl-N-[3-oxo-2-(2,2,2-trifluoroethyl)isoxazolidin-4-yl]-5-[(2S)-2-(trifluoromethylsulfonylamino)propoxy]pyridine-3-carboxamide]
≥ 80%: mortality at 200 ppm [5]

Cc1ncc(OC[C@H](C)NS(=O)(=O)C(F)(F)F)cc1C(=O)NC1CCN(c2ccc(F)cc2)C1=O (stereo partly drawn) [Compound P-35, N-[1-(4-fluorophenyl)-2-oxo-pyrrolidin-3-yl]-2-methyl-5-[(2S)-2-(trifluoromethylsulfonylamino)propoxy]pyridine-3-carboxamide]
≥ 80%: mortality at 200 ppm [5]

Cc1nc(C(C)NC(=O)c2cc(OC[C@H](C)NS(=O)(=O)C(F)(F)F)cnc2C)no1 (stereo partly drawn) [Compound P-38, 2-methyl-N-[1-(5-methyl-1,2,4-oxadiazol-3-yl)ethyl]-5-[(2S)-2-(trifluoromethylsulfonylamino)propoxy]pyridine-3-carboxamide]
≥ 80%: percent effect (mortality or growth inhibition) at 200 ppm [8]

C[C@@H](COc1cnc(Cl)c(C(=O)NC2CC2)c1)N(C(=O)OC(C)(C)C)S(=O)(=O)C(F)(F)F [Compound P-42, tert-butyl N-[(1S)-2-[[6-chloro-5-(cyclopropylcarbamoyl)-3-pyridyl]oxy]-1-methyl-ethyl]-N-(trifluoromethylsulfonyl)carbamate]
≥ 80%: mortality at 200 ppm [1, 9] | percent effect (mortality or growth inhibition) at 200 ppm [3] | mortality at 12 ppm [4, 11] | mortality at 200 ppm [5] | mortality at 200 ppm [6, 12]

CC(=O)N([C@@H](C)COc1cnc(Cl)c(C(=O)NC2CC2)c1)S(=O)(=O)C(F)(F)F [Compound P-43, 5-[(2S)-2-[acetyl(trifluoromethylsulfonyl)amino]propoxy]-2-chloro-N-cyclopropyl-pyridine-3-carboxamide]
≥ 80%: mortality at 200 ppm [1, 9] | mortality at 200 ppm [2, 10] | percent effect (mortality or growth inhibition) at 200 ppm [3] | mortality at 12 ppm [4, 11] | mortality at 200 ppm [5] | mortality at 24 ppm [7, 13] | mortality at 200 ppm [6, 12]

C[C@@H](COc1cnc(Cl)c(C(=O)N(C)C2(C#N)CC2)c1)NS(=O)(=O)C(F)(F)F [Compound P-47, 2-chloro-N-(1-cyanocyclopropyl)-N-methyl-5-[(2S)-2-(trifluoromethylsulfonylamino)propoxy]pyridine-3-carboxamide]
≥ 80%: mortality at 200 ppm [1, 9] | mortality at 200 ppm [2, 10] | mortality at 12 ppm [4, 11] | mortality at 200 ppm [5]

C[C@@H](COc1cnc(Cl)c(C(=O)NC2(C#N)CCC2)c1)NS(=O)(=O)C(F)(F)F [Compound P-48, 2-chloro-N-(1-cyanocyclobutyl)-5-[(2S)-2-(trifluoromethylsulfonylamino)propoxy]pyridine-3-carboxamide]
≥ 80%: mortality at 200 ppm [1, 9] | mortality at 12 ppm [4, 11] | mortality at 200 ppm [5] | mortality at 24 ppm [7, 13] | mortality at 200 ppm [6, 12]

C[C@@H](COc1cnc(Cl)c(C(=O)N(C)C2CC2)c1)NS(=O)(=O)C(F)(F)F [Compound P-58, 2-chloro-N-cyclopropyl-N-methyl-5-[(2S)-2-(trifluoromethylsulfonylamino)propoxy]pyridine-3-carboxamide]
≥ 80%: mortality at 200 ppm [1, 9] | mortality at 200 ppm [2, 10] | percent effect (mortality or growth inhibition) at 200 ppm [3] | mortality at 12 ppm [4, 11] | mortality at 24 ppm [7, 13]

Cc1ncc(OC[C@H](C)NS(=O)(=O)C(F)(F)F)cc1C(=O)NC1CC1 [Compound P-62, N-cyclopropyl-2-methyl-5-[(2S)-2-(trifluoromethylsulfonylamino)propoxy]pyridine-3-carboxamide]
≥ 80%: mortality at 200 ppm [5]
